# Laboratory results from patent US7906491B2 (Univisitair Medisch Centrum Utrecht, priority 2002, dated 2011).
# What was measured:
# Epac = biological target: T1, Epac (Homo sapiens, UniProt O95398); test: Relative affinity for Epac (cAMP = 1), in vitro; format: binding; conditions: relative to cAMP = 1
# T1 sequence (O95398 1-923): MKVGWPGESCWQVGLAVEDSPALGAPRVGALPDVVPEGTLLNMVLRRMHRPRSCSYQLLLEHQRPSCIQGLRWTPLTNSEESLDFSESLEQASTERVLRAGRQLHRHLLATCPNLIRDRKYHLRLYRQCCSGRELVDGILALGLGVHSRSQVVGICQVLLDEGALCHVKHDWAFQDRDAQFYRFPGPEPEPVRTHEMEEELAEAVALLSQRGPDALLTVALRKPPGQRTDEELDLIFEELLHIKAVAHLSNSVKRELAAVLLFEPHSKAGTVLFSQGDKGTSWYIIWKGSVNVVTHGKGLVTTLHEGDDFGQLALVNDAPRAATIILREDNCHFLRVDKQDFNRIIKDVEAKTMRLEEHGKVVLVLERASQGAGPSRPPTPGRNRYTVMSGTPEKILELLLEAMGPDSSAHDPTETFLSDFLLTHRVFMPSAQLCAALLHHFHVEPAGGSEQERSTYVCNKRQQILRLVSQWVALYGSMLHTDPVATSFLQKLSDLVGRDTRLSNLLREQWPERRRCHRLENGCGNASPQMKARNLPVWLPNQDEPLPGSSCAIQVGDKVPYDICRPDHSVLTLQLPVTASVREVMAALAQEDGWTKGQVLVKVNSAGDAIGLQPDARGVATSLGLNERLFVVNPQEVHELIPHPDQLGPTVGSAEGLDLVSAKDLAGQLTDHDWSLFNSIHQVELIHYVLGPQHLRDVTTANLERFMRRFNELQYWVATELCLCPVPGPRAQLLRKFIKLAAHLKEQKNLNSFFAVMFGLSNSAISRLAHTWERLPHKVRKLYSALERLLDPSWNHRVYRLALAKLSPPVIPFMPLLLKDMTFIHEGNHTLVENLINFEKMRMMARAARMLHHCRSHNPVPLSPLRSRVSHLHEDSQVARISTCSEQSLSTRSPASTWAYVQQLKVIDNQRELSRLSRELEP
# Epac1-ΔDEP1 = biological target: T2, Epac1-ΔDEP1 (Homo sapiens, UniProt O95398); test: In vitro GEF assay: Epac activity in the exchange reaction towards Rap (mantGDP-loaded Rap1b); format: biochemical; conditions: in vitro in the exchange reaction towards Rap; note: key: +++: activity comparible to I-007; ++: activity between I-007 and cAMP; +: activity comparible to cAMP; ±: activity less than cAMP
# T2 sequence (O95398 191-923 limits assumed): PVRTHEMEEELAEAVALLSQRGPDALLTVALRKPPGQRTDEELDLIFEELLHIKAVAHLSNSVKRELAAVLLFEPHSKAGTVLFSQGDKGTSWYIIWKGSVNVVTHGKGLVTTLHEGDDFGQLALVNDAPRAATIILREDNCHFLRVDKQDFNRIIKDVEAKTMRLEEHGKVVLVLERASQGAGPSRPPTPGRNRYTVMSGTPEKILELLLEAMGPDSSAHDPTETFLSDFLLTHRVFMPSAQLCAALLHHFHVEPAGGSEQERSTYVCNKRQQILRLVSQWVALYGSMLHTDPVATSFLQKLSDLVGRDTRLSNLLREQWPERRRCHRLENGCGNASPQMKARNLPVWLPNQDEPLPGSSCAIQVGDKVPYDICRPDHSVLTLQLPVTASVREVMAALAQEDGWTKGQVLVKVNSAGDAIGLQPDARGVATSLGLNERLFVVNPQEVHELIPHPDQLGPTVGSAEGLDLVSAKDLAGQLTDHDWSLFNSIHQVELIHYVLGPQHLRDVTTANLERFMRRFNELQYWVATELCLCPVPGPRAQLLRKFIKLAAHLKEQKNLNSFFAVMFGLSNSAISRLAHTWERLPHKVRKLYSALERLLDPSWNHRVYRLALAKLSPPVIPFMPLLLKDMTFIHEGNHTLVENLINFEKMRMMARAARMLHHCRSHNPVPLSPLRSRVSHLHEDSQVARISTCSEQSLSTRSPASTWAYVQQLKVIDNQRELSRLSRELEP
# Method: In vitro GEF assays were performed as described (3,16). […] Buffer conditions were 50 mM Tris pH7.4, 150 mM NaCl, 5% glycerol, 5 mM DTE, 60 μM GTP. Reactions were carried out in 96-well plates and measured in a Cary Eclipse from Varian Inc., using the manufacturers software.
# PKAI = test: Relative affinity for PKAI (cAMP = 1), in vitro; format: binding; conditions: relative to cAMP = 1
# PKAII = test: Relative affinity for PKAII (cAMP = 1), in vitro; format: binding; conditions: relative to cAMP = 1
Molecule,Relative affinity CAMP = 1 Epac (Epac),Relative activity of Epac* (Epac1-ΔDEP1),Relative affinity CAMP = 1 PKAI (PKAI),Relative affinity CAMP = 1 PKAII (PKAII)
"2′-O-ethyladenosine-3′,5′-cyclic monophosphate [Compound I-008]",0.05,+,0.0043,
"2′-O-isobutyladenosine-3′,5′-cyclic monophosphate [Compound I-011]",0.017,±,0.0009,
"2′-O-methyladenosine-3′,5′-cyclic monophosphate [Compound I-005]",0.12,,0.005,0.005
"2′-O-n-butyladenosine-3′,5′-cyclic monophosphate [Compound I-010]",0.03,+,0.0008,
"2′-O-propyladenosine-3′,5′-cyclic monophosphate [Compound I-009]",0.03,+,0.001,
"8-(2,3,5,6-tetrafluoro-phenylthio)-2′-O-methyladenosine-3′,5′-cyclic monophosphate [Compound I-124]",4.7,++,,
"8-(2,4-dichloro-phenylthio)-2′-O-methyladenosine-3′,5′-cyclic monophosphate [Compound I-126]",3.1,++,,
"8-(2-amino-ethylthio)-2′-O-methyladenosine-3′,5′-cyclic monophosphate [Compound I-118]",0.34,±,,
"8-(2-hydroxy-ethylthio)-2′-O-methyladenosine-3′,5′-cyclic monophosphate [Compound I-116]",1.2,+,,
"8-(3-methoxy-phenylthio)-2′-O-methyladenosine-3′,5′-cyclic monophosphate [Compound I-122]",2,+,,
"8-(4-Chloro-phenylthio)-inosine-3′,5′-cyclic monophosphate [Compound I-139]",,+,,
"8-(4-chloro-phenylthio)-2′-(N,N-dimethyl)-carbamoyl-adenosine-3′,5′-cyclic monophosphate [Compound I-127]",<0.002,,,
"8-(4-chloro-phenylthio)-2′-O-methyladenosine-3′,5′-cyclic monophosphorothioate, Rp-isomer [Compound I-130]",0.06,±,,
"8-(4-chloro-phenylthio)-2′-O-methyladenosine-3′,5′-cyclic monophosphorothioate, Sp-isomer [Compound I-134]",,+,,
"8-(4-chloro-phenylthio)-2′-deoxyadenosine-3′,5′-cyclic monophosphorothioate, Rp-isomer [Compound I-137]",,+,,
"8-(4-chloro-phenylthio)-2′-deoxyadenosine-3′,5′-cyclic monophosphorothioate, Sp-isomer [Compound I-138]",,+,,

Molecule,Relative affinity CAMP = 1 Epac (Epac),Relative activity of Epac* (Epac1-ΔDEP1),Relative affinity CAMP = 1 PKAI (PKAI),Relative affinity CAMP = 1 PKAII (PKAII)
"8-(4-hydroxy-phenylthio)-2′-O-methyladenosine-3′,5′-cyclic monophosphate [Compound I-125]",6.4,+++,,
"8-(4-isopropyl-phenylthio)-2′-O-methyladenosine-3′,5′-cyclic monophosphate [Compound I-123]",4.8,++,,
"8-(4-methyl-phenylthio)-2′-O-methyladenosine-3′,5′-cyclic monophosphate [Compound I-121]",5.1,+++,,
"8-(benzimidazolyl-2-thio)-2′-O-methyladenosine-3′,5′-cyclic monophosphate [Compound I-115]",0.09,+,,
"8-(benzothiazolyl-2-thio)-2′-O-methyladenosine-3′,5′-cyclic monophosphate [Compound I-120]",0.17,+,,
"8-(pyridinyl-2-thio)-2′-O-methyladenosine-3′,5′-cyclic monophosphate [Compound I-119]",0.8,++,,
"8-benzyloxy-2′-O-methyladenosine-3′,5′-cyclic monophosphate [Compound I-132]",0.18,+,,
"8-bromo-2′-O-methyladenosine-3′,5′-cyclic monophosphorothioate, Rp-isomer [Compound I-129]",0.05,±,,
"8-bromo-2′-O-methyladenosine-3′,5′-cyclic monophosphorothioate, Sp-isomer [Compound I-133]",,+,,
"8-bromo-2′-deoxyadenosine-3′,5′-cyclic monophosphorothioate, Rp-isomer [Compound I-135]",,+,,
"8-chloro-2′-O-methyladenosine-3′,5′-cyclic monophosphate [Compound I-141]",0.92,,0.012,0.0002
"8-cyclohexylamino-2′-deoxyadenosine-3′,5′-cyclic monophosphate [Compound I-140]",,+,,
"8-methoxy-2′-O-methyladenosine-3′,5′-cyclic monophosphate [Compound I-131]",0.36,+,,
"8-phenylethylamino-2′-O-methyladenosine-3′,5′-cyclic monophosphate [Compound I-111]",0.08,±,,
"CCSc1nc2c(N)ncnc2n1C1OC2COP(=O)(O)OC2C1OC (stereo not shown) [Compound I-117, 8-ethylthio-2′-O-methyladenosine-3′,5′-cyclic monophosphate]",1.8,+,,
"Nc1ncnc2c1nc(Br)n2[C@H]1C[C@@H]2O[P@@](=O)(S)OC[C@H]2O1 [Compound I-136, 8-bromo-2′-deoxyadenosine-3′,5′-cyclic monophosphorothioate, Sp-isomer]",,+,,
